Results as given in US5661146A, “Substituted dibenzoxazepine urea compounds, pharmaceutical compositions and methods of use” (G.D. Searle & Co., priority 1995, dated 1997).

Tests used:
[1] = target: T1, prostaglandin E2 -induced contractions of segments of guinea pig ileum (Cavia porcellus, UniProt A0A286XHJ6); test: Prostaglandin (PGE) Antagonism Assay (prostaglandin E2-induced contractions of guinea pig ileum segments); details: initial test compound concentration 3 micromolar
T1 construct: Segments of ileum about 2 cm long were then cut and mounted in a 10 mL tissue bath; from tissue; host or cells: ileum segments of male albino guinea pigs
T1 sequence (A0A286XHJ6 1-405): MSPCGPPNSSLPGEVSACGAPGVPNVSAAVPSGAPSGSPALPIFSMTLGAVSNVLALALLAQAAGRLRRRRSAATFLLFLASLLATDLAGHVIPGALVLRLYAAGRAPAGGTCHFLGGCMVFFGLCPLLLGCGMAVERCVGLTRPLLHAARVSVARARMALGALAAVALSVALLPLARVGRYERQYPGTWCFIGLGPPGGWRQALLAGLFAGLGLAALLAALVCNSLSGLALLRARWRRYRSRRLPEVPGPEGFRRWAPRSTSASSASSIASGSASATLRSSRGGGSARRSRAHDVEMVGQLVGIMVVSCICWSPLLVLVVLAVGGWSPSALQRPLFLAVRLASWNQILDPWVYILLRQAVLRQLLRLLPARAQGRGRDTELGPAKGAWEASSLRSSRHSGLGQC
From the text: The ilea were then quickly removed from the guinea pigs and placed in a modified Tyrode solution, a solution which is known to those skilled in the art, containing one-half of the usual amount of magnesium ions. […] Data for a control prostaglandin E2 dose response curve plotting concentration of prostaglandin E2 versus the intensity of contractions, detected isotonically, was then obtained by experimentally adjusting the dose of the prostaglandin E2 being injected into the tissue bath, in a manner known by those of skill in the art. Solutions or suspensions containing an initial concentration (3 micromolar) of a test compound in modified Tyrode solution ("test solutions/suspensions") were then separately substituted for the control bath solution. Each test solution/suspension was then kept in constant contact with the ileum tissue, except for brief periods to drain the bath in preparation for rinsing with fresh test solution/suspension. A second prostaglandin E2 dose response curve was then generated for prostaglandin E2 in the presence of a test compound.

mice = test: Writhing Assay (PBQ-induced writhing, analgesic activity in mice); format: in vivo, mouse (Charles River male albino mice); details: among compounds of the invention tested
From the text: The Writhing Assay is one of the most widely-used experimental procedures for measuring the analgesic activity of different narcotic and nonnarcotic analgesic agents, and involves the continuous, chemically-induced pain of visceral origin to an animal, such as a mouse or rat. [Gyires et al., Arch. int. […] Drugs which reduce the number of writhes of the animal appear to restore the normal nociceptive threshold of the animal. […] Charles River male albino mice, weighing 20 to 30 grams, were used in this assay. […] Ten mice which were given saline in place of a test compound of the invention were used as a control group. Five minutes later, each mouse was individually placed into a glass beaker for observation, and the number of writhes occurring during the following ten-minute period was counted. […] The standard initial screening dose of a test compound employed in this assay was 30 mpk […].

| Structure (SMILES) | PGE IN GUINEA PIG ILEUM, dose ratio given as activity word [1] | potency ranking in the Writhing Assay (in words) (mice) |
| --- | --- | --- |
| CCN(CC)CCCCCOC(=O)N1Cc2ccccc2Oc2ccc(Cl)cc21 [Example 29, 5-(diethylamino)pentyl 8-chlorodibenz[b,f]-[1,4]oxazepine-10(11H)-carboxylate] | Active |  |
| COC(=O)[C@H](C)NC(=O)N1Cc2ccccc2Oc2ccc(Cl)cc21 [Example 32, methyl (L)-2R-[[(8-chlorodibenz[b,f][1,4]oxazepine-10-(11H)-yl)carbonyl]amino]propanoate] |  | most potent compound of the invention tested in this assay |
